# In patent US20250326714A1, “PURE FORMS OF CRYSTALLINE ATICAPRANT” (Janssen Pharmaceuticals, Inc., priority 2022, published 2025):
# Columns and labels:
# [1] = Solid-state characterization of Form III (GVS, TGA); format: physicochemical
# [2] = ICH M7 class of impurity (DNA reactive / mutagenic impurities)
# [3] = Body weight by treatment group, Example 5 study; format: in vivo, human
# Excerpt: Treatment with the chemically and/or enantiomerically pure aticaprant described herein, e.g., chemically and/or enantiomerically pure crystalline Form III of aticaprant, or compositions containing the same as described herein has several advantages over the treatments in the art. […] As used herein, the term “weight gain” refers to an increase in the weight of patient, relative to the weight of the patient before taking the chemically and/or enantiomerically pure aticaprant described herein, e.g., chemically and/or enantiomerically pure crystalline Form III of aticaprant, or compositions containing the same or the weight of the patient that is assessed at the time of the initial administration of the chemically and/or enantiomerically pure aticaprant described herein, e.g., chemically and/or enantiomerically pure crystalline Form III of aticaprant, or compositions containing the same. In certain embodiments, the patient may actually see a decrease in overall weight, relative to the weight of the patient before taking the chemically and/or enantiomerically pure aticaprant described herein, e.g., chemically and/or enantiomerically pure crystalline Form III of aticaprant, or compositions containing the same.
# At the lead-in baseline timepoint, the mean weight for subjects in the placebo group was 76.17 kg compared to 78.66 in the aticaprant group. After 6 weeks in the double-blind treatment phase, the mean weight in the placebo group was 75.75 kg compared to 78.57 kg in the aticaprant group. […] This is unexpected because other adjunctive treatments for MDD result in a mean weight increase. See, Thase M, et al. J Clin Psych. 2015: 76 (9), 1224-1231; Thase, J Clin Psych. 2015, 76 (9): 1232-1240; El Khalili, Int J Neuropsychopharmacol. 2010, 13, 917-932; Marcus, J. Clin. Psychopharmacol. […] Nashville, Tenn, ACNP, 2008; Earley, American College of Neuropsychopharmacology, 2007, Annual Meeting Abstracts (Boca Raton, Fla, Dec. 9-13, 2007). Nashville, TN, ACNP, 2007). See, Table 48.
compound,measurement,setting,value
Cc1cc(C)cc([C@@H]2CCCN2Cc2ccc(Oc3ccc(C(N)=O)cc3F)cc2)c1 [Form III],TGA degradation onset,[1],Degradation onset ~250 °C
same,XRPD after GVS,[1],XRPD unchanged after GVS
Cc1cc(C)cc([C@@H]2CCCN2Cc2ccc(Oc3ccc(CN4CCC[C@H]4c4cc(C)cc(C)c4)cc3)cc2)c1 [Impurity 1],Impurity Class (ICH M7 Guideline),[2],Class 5
"Cc1cc(C)cc(C2CCCN2Cc2ccc(Oc3ccc(C(N)=O)cc3F)cc2)c1 (stereo not drawn) [aticaprant, 3-fluoro-4-4-2-(3,5-dimethylphenyl) pyrrolidin-1-yl-methylphenoxybenzamide]",weight over the 6-week double blind treatment period,[3]; both groups,remained relatively stable
same,"Mean weight, Absolute Change (Withdrawal − Lead-in)",[3]; n = 85,-0.09 kg
same,"Mean weight, Lead-in Baseline, mean (SE)",[3]; n = 85,78.66 (1.65) kg
same,"Mean weight, Relative % Change",[3]; n = 85,−0.11%
same,"Mean weight, Screening, mean (SE)",[3]; n = 85,78.42 (1.65) kg
same,"Mean weight, Withdrawal Baseline, mean (SE)","[3]; n = 85, after 6 weeks double-blind treatment",78.57 (1.71) kg
